± gives the expanded uncertainty stated by the source.
Details: for kinematic viscosity: Liquid

C=C(F)C(F)(F)F [2,3,3,3-tetrafluoro-1-propene]
light scattering
Details	kinematic viscosity [m2/s]	surface tension liquid-gas [mN/m]
293.15 K	1.44e-07 ± 5.8e-09	6.82 ± 0.21
303.09 K	1.32e-07 ± 5.3e-09	5.71 ± 0.17
313.2 K	1.22e-07 ± 4.9e-09	4.6 ± 0.14
323.19 K	1.13e-07 ± 4.5e-09	3.55 ± 0.11
333.14 K	1.02e-07 ± 4.1e-09	2.55 ± 0.08
343.11 K	8.99e-08 ± 3.6e-09	1.64 ± 0.05
353.08 K	8.2e-08 ± 3.3e-09	0.81 ± 0.03
358.05 K	7.7e-08 ± 3.1e-09	0.46 ± 0.02
363.05 K	7e-08 ± 2.8e-09	0.15 ± 0.01
365.05 K	6.24e-08 ± 2.6e-09	–

FCC(F)(F)F [1,1,1,2-tetrafluoroethane]
surface light scattering
Details	kinematic viscosity [m2/s]	surface tension liquid-gas [mN/m]
302.99 K	1.55e-07 ± 6.2e-09	7.45 ± 0.23
312.86 K	1.41e-07 ± 5.6e-09	6.19 ± 0.19
322.92 K	1.28e-07 ± 5.1e-09	4.95 ± 0.15
332.92 K	1.17e-07 ± 4.7e-09	3.79 ± 0.12
342.9 K	1.07e-07 ± 4.3e-09	2.68 ± 0.08
352.89 K	9.79e-08 ± 3.9e-09	1.65 ± 0.05
363.27 K	8.56e-08 ± 3.4e-09	0.73 ± 0.03
368.26 K	7.9e-08 ± 3.2e-09	0.34 ± 0.02

F/C=C/C(F)(F)F [trans-1,3,3,3-tetrafluoropropene]
surface light scattering
Details	kinematic viscosity [m2/s]	surface tension liquid-gas [mN/m]
295.23 K	1.78e-07 ± 7.1e-09	8.88 ± 0.27
303.19 K	1.61e-07 ± 6.4e-09	7.91 ± 0.24
313.21 K	1.43e-07 ± 5.7e-09	6.66 ± 0.2
323.19 K	1.32e-07 ± 5.3e-09	5.48 ± 0.17
333 K	1.19e-07 ± 4.8e-09	4.36 ± 0.13
343.05 K	1.13e-07 ± 4.5e-09	3.3 ± 0.1
353 K	1.05e-07 ± 4.2e-09	2.26 ± 0.07
363.12 K	9.24e-08 ± 3.7e-09	1.35 ± 0.04
373.14 K	8.17e-08 ± 3.3e-09	0.54 ± 0.02
